In ChEMBL document CHEMBL1147358, “A New Brominated Indole-3-carbaldehyde from the Marine Bryozoan Zoobotryon verticillatum” (J Nat Prod, 1993):
Activity calls are given as the source filed them. The rule behind the calls is not given here.

Assays:
[1] = tested on: Echinoidea; experiment: Effect on fertilized sea urchin egg division assessed as delaying of metamorphosis at 5 ug/ml; assay type: functional
[2] = tested on: Pluteus; experiment: Decrease in mobility of Pluteus larvae at 10 ug/ml; assay type: functional, organism-based
[3] = tested on: Echinoidea; experiment: Inhibition of sea urchin egg division at 20 ug/ml; assay type: functional
[4] = tested on: Echinoidea; experiment: Inhibition of sea urchin egg division at 5 ug/ml; assay type: functional

Row | Compound | Activity [1] | Activity [2] | Activity [3] | Activity [4]
1 | Cn1c(Br)c(C=O)c2cc(Br)c(Br)cc21 | Active | Active | – | –
2 | CN(C)Cc1c(Br)n(C)c2cc(Br)c(Br)cc12 | – | – | Active | Active
3 | Cn1c(Br)c(C[N+](C)(C)[O-])c2cc(Br)c(Br)cc21 | – | – | Active | Active
